The results in this text go back to patent US7902327B2, “Dendrimeric peptides, pharmaceutical compositions and methods of using the same” (New York University School of Medicine, priority 2007, dated 2011).

The test system of data set [1] is ampicillin- and streptomycin-resistant E. coli (D31).
For data set [2], the system named is B. Subtilis (ATCC 6633).
Data set [3] deals with B. anthracis (32F2 Sterne).
Data set [4] has as its system Acinetobacter. baumannii (ATCC BAA-747).
Data set [5] has as its system multi-drug resistant strain S. aureus.
The test system of data set [6] is E. coli.
The test system of data set [7] is E. coli RP437 biofilms. Description: biofilm assay on stainless steel coupons with LIVE/DEAD staining. The note with it: for Biofilm coefficients: Dead cells / Biofilm coefficients: Live cells / Biofilm coefficients: Total biofilms: 24 hours. Format: cell-based. The method, then:
The stainless steel (S.S.) coupons were polished using a fine 3M SandBlaster sandpaper, then autoclaved for sterilization. […] For all the treatments, duplicate coupons were tested. To analyze the E. coli biofilms using fluorescence microscopy, the biofilms were stained with […] bacterial viability kit (Cat# L7012, Invitrogen Corporation, California). Each S.S. coupon was washed gently by dipping vertically in 0.85% NaCl buffer three times (change to fresh buffer after each dipping). Then, they were soaked in 1 mL of 0.85% NaCl buffer containing 3 μl of staining component A and B (1:4) in the dark for 15 mins. Images were taken by AXIO Imager.M1 (Carl Zeiss, German). Five images were taken for each sample. Data were obtained and are presented in Table 3, below, as well as in FIG. 5.

For data set [8], the system named is E. coli RP437 biofilms. Description: CFU assay of biofilm inhibition. In kind it is cell-based. As to conditions: 25 μg/mL, 24 hours. The method, then:
Twenty-four hour biofilms of E. coli RP437 were grown on stainless steel coupons in LB medium containing up to 100 μg/mL of the three antimicrobial peptides—dendrimer, hexamer, and octamer. CFU counts were used to determine the extent of inhibition. The procedure of the study is as follows.
Overnight cultures of E. coli RP437 grown in LB medium were used to inoculate 5 mL of LB supplemented with up to 100 μg/mL of each peptide and polished, sterile 316L stainless steel coupons (1.2 cm×0.6 cm×0.1 cm). The cultures were incubated at 37° C. for 24 hours. The coupons were then removed from the bacterial culture using sterile forceps and washed three times in 0.85% NaCl buffer and placed in round-bottom tubes containing 3 mL of fresh NaCl buffer. These were then sonicated for 1.5 minutes in a water bath. The NaCl buffer containing bacterial cells was serially diluted and 60 μL of 1000 and 5000 fold dilutions were plated on LB agar plates. The plates were incubated at 37° C. overnight. The number of CFUs for each sample was counted after incubation. The experiment was conducted in duplicate.

In data set [9] the test system is E. faecalis (29212).
Data set [10] relates to fresh sheep erythrocytes. Description: hemolytic assay. Format: cell-based. As to conditions: sheep erythrocytes, 37° C., 30 minutes. The method, then: Hemolytic activity of model peptides was assessed on fresh sheep erythrocytes (Fitzgerald Inc., Concord, Mass.). […] The resulting supernatant was diluted by a factor of 40 in distilled water. The absorbances of the supernatant at λ=540 nm (OD540) were measured in the UV Spectrophotometer. […] Hemolytic index (HI) was defined as HI═HD50/IC50.

The test system of data set [11] is three other gram-positive bacteria.
Data set [12] concerns gram-negative A. baumannii. The data set can be described thus: LIVE/DEAD staining assay, membrane damage. As to conditions: 1 hr incubation; (RW)4D 10 uM. In kind it is cell-based.
Data set [13] deals with gram-positive MRSA. The data set can be described thus: LIVE/DEAD staining assay, membrane damage. Format: cell-based. The note with it: 1 hr incubation; (RW)4D 10 uM.

Converted amounts (≈) assume the structure as drawn. Like-named read-outs stand apart in the source and are kept apart here. Where a SMILES comes first, the peptide text is derived from it. Side-chain parts run from the residue outwards. [ ]: non-standard residue; d: D form. The star is where a group is joined. Lys(α,ε-(ArgTrp)2) = N=C(N)NCCC[C@H](N)C(=O)N[C@@H](Cc1c[nH]c2ccccc12)C(=O)NCCCC[C@H](NC(=O)[C@H](Cc1c[nH]c2ccccc12)NC(=O)[C@@H](N)CCCNC(=N)N)C(=O)*; X1 = CCCCCCCCCN*; βAla = NCCC(=O)O

`CCCCCCCCCNC(=O)CCNC(=O)[C@H](CCCCNC(=O)[C@H](CCCCNC(=O)[C@H](Cc1c[nH]c2ccccc12)NC(=O)[C@@H](N)CCCNC(=N)N)NC(=O)[C@H](Cc1c[nH]c2ccccc12)NC(=O)[C@@H](N)CCCNC(=N)N)NC(=O)[C@H](CCCCNC(=O)[C@H](Cc1c[nH]c2ccccc12)NC(=O)[C@@H](N)CCCNC(=N)N)NC(=O)[C@H](Cc1c[nH]c2ccccc12)NC(=O)[C@@H](N)CCCNC(=N)N` [(RW)4D-Nonylamine] (H-RWK([Trp-Arg])K(Lys(α,ε-(ArgTrp)2))[βAla]-X1): in data set [1] (salt not stated), the “MIC50 E. coli D31” value stood at 26.7 µg/mL. The “MIC50 B. subtilis” value in data set [2] (ATCC 6633) was 6.5 µg/mL (≈ 3.3 µM). Besides, in [3], the “MIC50 B. anthracis” value turned out to be 31.8 µg/mL (≈ 16.2 µM). Further, the “MIC50 A. baumannii” value in data set [4] was 75.2 µg/mL (≈ 38.2 µM). Also, the “MIC50 S. aureus” value in [5] (salt not stated) was found to be 21.6 µg/mL. Moreover, the “MIC50 E. coli” value in data set [6] turned out to be 15.8 µg/mL (≈ 8.03 µM).

In the case of `N=C(N)NCCC[C@H](N)C(=O)N[C@@H](Cc1c[nH]c2ccccc12)C(=O)NCCCC[C@H](NC(=O)[C@H](Cc1c[nH]c2ccccc12)NC(=O)[C@@H](N)CCCNC(=N)N)C(=O)NCCCC[C@H](NC(=O)[C@H](CCCCNC(=O)[C@H](Cc1c[nH]c2ccccc12)NC(=O)[C@@H](N)CCCNC(=N)N)NC(=O)[C@H](Cc1c[nH]c2ccccc12)NC(=O)[C@@H](N)CCCNC(=N)N)C(=O)NCCC(N)=O` [Dendrimer] (H-RWK([Trp-Arg])K(Lys(α,ε-(ArgTrp)2))[βAla]-NH2; N-terminus and C-terminus assumed), in data set [7] (25 μg/mL), the “Total biofilm formation compared with blank control (ANOVA)” value is listed as “significantly reduced”, the “Biofilm coefficients: Dead cells” value is reported as 7.11% ± 1.93%, the “Biofilm coefficients: Live cells” value is 4.42% ± 2.30% and the “Biofilm coefficients: Total biofilms” value is 11.16% ± 3.09%. Moreover, in data set [7] (50 μg/mL), the “Total biofilm formation compared with blank control (ANOVA)” value is recorded as “significantly reduced”, the “Biofilm coefficients: Dead cells” value is 5.05% ± 1.47%, the “Biofilm coefficients: Live cells” value is reported as 2.32% ± 1.12% and the “Biofilm coefficients: Total biofilms” value is 7.06% ± 1.91%. Further, the “reduction of viable biofilm cell counts” value in data set [8] is listed as “ineffective”.

Consider `CC[C@H](C)[C@H](N)C(=O)N[C@@H](CC(C)C)C(=O)N1CCC[C@H]1C(=O)N[C@@H](Cc1c[nH]c2ccccc12)C(=O)N[C@@H](CCCCN)C(=O)N[C@@H](Cc1c[nH]c2ccccc12)C(=O)N1CCC[C@H]1C(=O)N[C@@H](Cc1c[nH]c2ccccc12)C(=O)N[C@@H](Cc1c[nH]c2ccccc12)C(=O)N1CCC[C@H]1C(=O)N[C@@H](Cc1c[nH]c2ccccc12)C(=O)N[C@@H](CCCNC(=N)N)C(=O)N[C@@H](CCCNC(=N)N)C(N)=O` [Indolicidin, reference compound], for which the “increase in MIC50 value from no salt to high-salt condition” value in data set [1] (E. coli and S. aureus, 0 to 150 mM NaCl) is reported as greater than 100%. In addition, the “MIC50 E. faecalis” value in data set [9] (29212) was 1.6 µg/mL (≈ 0.839 µM). Also, the “HD50 (peptide concentration corresponding to 50% hemolysis)” value in data set [10] is 293 µg/mL. Also, the “MIC50 B. subtilis” value in [2] (ATCC 6633) was determined as 1.0 µg/mL (≈ 0.525 µM). In addition, the “mean MIC50 against all test organisms” value in data set [11] stood at 3.6 µg/mL. Besides, the “MIC50 B. anthracis” value in data set [3] (32F2 Sterne) is 8.2 µg/mL (≈ 4.3 µM).

Take `CN[C@H](CC(C)C)C(=O)N[C@H]1C(=O)N[C@@H](CC(N)=O)C(=O)N[C@H]2C(=O)N[C@H]3C(=O)N[C@H](C(=O)N[C@H](C(=O)O)c4cc(O)cc(O)c4-c4cc3ccc4O)[C@H](O)c3ccc(c(Cl)c3)Oc3cc2cc(c3O[C@@H]2O[C@H](CO)[C@@H](O)[C@H](O)[C@H]2O[C@H]2C[C@](C)(N)[C@H](O)[C@H](C)O2)Oc2ccc(cc2Cl)[C@H]1O` [vancomycin, reference compound]: the “membrane damage / killing by Live/Dead staining” value in data set [12] and in data set [13] was “did not actively kill” throughout.

Turning to Gentamicin [reference compound], the “MIC50 E. coli” value in data set [1] (0 mM NaCl), in [1] (75 mM NaCl) and in [1] (150 mM NaCl) was 1.2 µg/mL each time. Moreover, the “MIC50 E. faecalis” value in [9] was found to be 0.36 µg/mL. In addition, the “HD50 (peptide concentration corresponding to 50% hemolysis)” value in [10] is greater than 2000 µg/mL. In addition, the “MIC50 B. subtilis” value in data set [2] is 0.32 µg/mL. Also, the “MIC50 B. anthracis” value in [3] came out at 3.1 µg/mL. The “MIC50 S. aureus” value in data set [5] (0 mM NaCl), in data set [5] (75 mM NaCl) and in data set [5] (150 mM NaCl) was 51 µg/mL throughout.
